Converted amounts (≈) assume the structure as drawn. Like-named read-outs stand apart in the source and are kept apart here. Residues, ends and D or L forms follow the SMILES beside them. No end group written: not given here.
Tests used:
Details in all cases: 10 mM phosphate buffer, 99.9% killing
[1] = tested on: Psuedomonas aeruginosa; test: Bacterial lysis assay (broth dilution), minimal bactericidal concentration; type: cell-based, Pseudomonas aeruginosa
Text: (§1) The assays for growth inhibition of a microbial target can be used to derive a minimum bactericidal concentration (MBC) value for the peptide, i.e., the concentration of peptide required to kill 99.9% of the microbial sample being tested. This value is well known to those in the art as representative of the effectiveness of a particular antimicrobial agent (e.g., an antibiotic) against a particular organism or group of organisms. In assays to detect the MBC of a peptide, growth inhibition of a bacterial population also can be measured with reference to the number of colony forming units (cfu) after exposure to a peptide relative to a control experiment without a peptide.
(§2) Bacterial lysis assay. Bacterial lysis assays were conducted in a manner similar to that described previously (Lehrer, R. I., M. E. Selsted, D. Szklarek, and F. J. 1983. Infect. Immun. 42: 10-4, 1983; Miller, M. A., R. F. Garry, J. M. Jaynes, and R. C. Montelaro, AIDS Res Hum Retroviruses 7: 511-519, 1991). Bacterial suspensions were cultured in Luria-Bertani Broth to mid-log growth phase and washed by two cycles of centrifugation and suspension in 10 mM phosphate buffer. The Abs600 of the suspension was adjusted with 10 mM phosphate buffer such that, upon dilution, 5-10x10^5 cfu/mL would be treated in the assay. Bacteria were incubated for 1h with two-fold dilutions of peptides (100µM to 100 nM) in 96-well plates using 10 mM phosphate buffer, pH 7.2, as a diluent. Ten-fold dilutions of bacteria were performed to 1:1000; a 100µl aliquot from each condition was spread on the surface of tryptic soy agar plates (Difco, Detroit, Mich.) which were incubated overnight. Colonies of surviving bacteria (cfu, colony-forming units) were counted and compared to untreated controls to determine the amount of peptide-induced killing under each condition. Log killing is defined as the log of the ratio of cfu present before and after treatment with peptide. The minimal bactericidal concentration, MBC, is the peptide concentration at which 99.9% (three log) killing is achieved (Pearson et al., Antimicrob. Agents Chemother. 18: 699-708, 1980).
(§3) Results. Representative gram positive (S. aureus) and gram negative (P. aeruginosa) clinical isolates were used as the index bacteria to survey the peptides described in this invention.
(§4) A limitation of many host-derived antimicrobial peptides is their decreased activity at physiologic (150 mM) NaCl concentration. See Friedrich et al., Antimicrobial Agents and Chemotherapy 43:1542-1548. The activity of eLLPs and LBUs of this invention were compared to an expanded list of clinical bacterial isolates. These are summarized in Table 2 by comparing their MBCs in phosphate buffer alone (low salt) and phosphate buffer containing 150 mM NaCl (physiologic conditions). Inspection of this table would lead one skilled in the art to conclude that the activity of eLLPs and LBUs compare favorably to the host derived antimicrobial peptides as it relates to the spectrum and potency of antimicrobial activity.

[2] = tested on: Staphylococcus aureus; test: as above; type: cell-based
Text: as §1, §2, §3, §4

[3] = tested on: Methicillin Resistant S. aureus; type: cell-based
Text: as §1, §2, §4

Compound | MBC ([1]; 0 mM NaCl) [µM] | MBC ([1]; 150 mM NaCl) [µM] | MBC ([2]; 0 mM NaCl) | MBC ([2]; 150 mM NaCl) | MBC ([3]; 0 mM NaCl) | MBC ([3]; 150 mM NaCl)
CC(C)[C@H](NC(=O)[C@H](CCCNC(=N)N)NC(=O)[C@H](CCCNC(=N)N)NC(=O)[C@@H](NC(=O)[C@@H](NC(=O)[C@H](CCCNC(=N)N)NC(=O)[C@@H](N)CCCNC(=N)N)C(C)C)C(C)C)C(=O)N[C@@H](CCCNC(=N)N)C(=O)N[C@@H](CCCNC(=N)N)C(=O)N[C@H](C(=O)N[C@H](C(=O)N[C@@H](CCCNC(=N)N)C(=O)N[C@@H](CCCNC(=N)N)C(=O)N[C@H](C(=O)N[C@H](C(=O)N[C@@H](CCCNC(=N)N)C(=O)N[C@H](C(=O)N[C@H](C(=O)N[C@@H](CCCNC(=N)N)C(=O)N[C@@H](CCCNC(=N)N)C(=O)N[C@H](C(=O)N[C@H](C(=O)N[C@@H](CCCNC(=N)N)C(=O)N[C@@H](CCCNC(=N)N)C(=O)O)C(C)C)C(C)C)C(C)C)C(C)C)C(C)C)C(C)C)C(C)C)C(C)C [LBU-2, RRVVRRVRRV VRRVV RVVRR VVRR] (H-RRVVRRVRRVVRRVVRVVRRVVRR-OH) | 1.5 (≈ 4.71 µg/mL) | 0.8 (≈ 2.51 µg/mL) | 1500 nM (≈ 4.71 µg/mL) | >100,000 nanomolar |  | 
CC(C)[C@H](N)C(=O)N[C@@H](CCCNC(=N)N)C(=O)N[C@@H](CCCNC(=N)N)C(=O)N[C@H](C(=O)N[C@H](C(=O)N[C@@H](CCCNC(=N)N)C(=O)N[C@@H](CCCNC(=N)N)C(=O)N[C@H](C(=O)N[C@H](C(=O)N[C@@H](CCCNC(=N)N)C(=O)N[C@H](C(=O)N[C@H](C(=O)N[C@@H](CCCNC(=N)N)C(=O)N[C@@H](CCCNC(=N)N)C(=O)N[C@H](C(=O)N[C@H](C(=O)N[C@@H](CCCNC(=N)N)C(=O)N[C@@H](CCCNC(=N)N)C(=O)N[C@H](C(=O)N[C@@H](CCCNC(=N)N)C(=O)N[C@@H](CCCNC(=N)N)C(=O)N[C@H](C(=O)N[C@H](C(=O)N[C@@H](CCCNC(=N)N)C(=O)N[C@@H](CCCNC(=N)N)C(=O)N[C@H](C(=O)N[C@H](C(=O)N[C@@H](CCCNC(=N)N)C(=O)N[C@H](C(=O)N[C@H](C(=O)N[C@@H](CCCNC(=N)N)C(=O)N[C@@H](CCCNC(=N)N)C(=O)N[C@H](C(=O)N[C@H](C(=O)N[C@@H](CCCNC(=N)N)C(=O)N[C@@H](CCCNC(=N)N)C(=O)O)C(C)C)C(C)C)C(C)C)C(C)C)C(C)C)C(C)C)C(C)C)C(C)C)C(C)C)C(C)C)C(C)C)C(C)C)C(C)C)C(C)C)C(C)C)C(C)C)C(C)C [LBU-3, VRRVVRRVVRVVRRVVRRVRRVVRRVVRVV RRVVRR] (H-VRRVVRRVVRVVRRVVRRVRRVVRRVVRVVRRVVRR-OH) | 1.5 (≈ 6.92 µg/mL) | 0.8 (≈ 3.69 µg/mL) | 1500 nM (≈ 6.92 µg/mL) | 1500 nM (≈ 6.92 µg/mL) |  | 
CC(C)[C@H](NC(=O)[C@H](Cc1c[nH]c2ccccc12)NC(=O)[C@H](CCCNC(=N)N)NC(=O)[C@H](CCCNC(=N)N)NC(=O)[C@@H](NC(=O)[C@@H](NC(=O)[C@H](CCCNC(=N)N)NC(=O)[C@@H](NC(=O)[C@@H](NC(=O)[C@@H](N)CCCNC(=N)N)C(C)C)C(C)C)C(C)C)C(C)C)C(=O)N[C@@H](CCCNC(=N)N)C(=O)N[C@@H](CCCNC(=N)N)C(=O)O [WLBU-1, RVVRV VRRWV RR] (H-RVVRVVRRWVRR-OH) | 0.4 (≈ 0.655 µg/mL) | 2.5 (≈ 4.09 µg/mL) | 30.000 nM (≈ 0.0491 µg/mL) | 10.000 nM (≈ 0.0164 µg/mL) | 50,000 nanomolar | 50,000 nanomolar
CC(C)[C@H](NC(=O)[C@H](Cc1c[nH]c2ccccc12)NC(=O)[C@H](CCCNC(=N)N)NC(=O)[C@H](CCCNC(=N)N)NC(=O)[C@@H](NC(=O)[C@@H](NC(=O)[C@H](CCCNC(=N)N)NC(=O)[C@@H](NC(=O)[C@@H](NC(=O)[C@H](CCCNC(=N)N)NC(=O)[C@H](CCCNC(=N)N)NC(=O)[C@H](Cc1c[nH]c2ccccc12)NC(=O)[C@@H](NC(=O)[C@H](CCCNC(=N)N)NC(=O)[C@H](CCCNC(=N)N)NC(=O)[C@@H](NC(=O)[C@H](CCCNC(=N)N)NC(=O)[C@H](CCCNC(=N)N)NC(=O)[C@@H](NC(=O)[C@H](Cc1c[nH]c2ccccc12)NC(=O)[C@H](CCCNC(=N)N)NC(=O)[C@@H](N)CCCNC(=N)N)C(C)C)C(C)C)C(C)C)C(C)C)C(C)C)C(C)C)C(C)C)C(=O)N[C@@H](CCCNC(=N)N)C(=O)N[C@@H](CCCNC(=N)N)C(=O)O [WLBU-2, RRWVRRVRRV WRRVV RVVRR WVRR] (H-RRWVRRVRRVWRRVVRVVRRWVRR-OH) | 0.2 (≈ 0.68 µg/mL) | 0.1 (≈ 0.34 µg/mL) | 1000 nM (≈ 3.4 µg/mL) | 600 nM (≈ 2.04 µg/mL) | 200 nM (≈ 0.68 µg/mL) | 100 nM (≈ 0.34 µg/mL)
CC(C)[C@H](N)C(=O)N[C@@H](CCCNC(=N)N)C(=O)N[C@@H](CCCNC(=N)N)C(=O)N[C@H](C(=O)N[C@@H](Cc1c[nH]c2ccccc12)C(=O)N[C@@H](CCCNC(=N)N)C(=O)N[C@@H](CCCNC(=N)N)C(=O)N[C@H](C(=O)N[C@H](C(=O)N[C@@H](CCCNC(=N)N)C(=O)N[C@H](C(=O)N[C@H](C(=O)N[C@@H](CCCNC(=N)N)C(=O)N[C@@H](CCCNC(=N)N)C(=O)N[C@@H](Cc1c[nH]c2ccccc12)C(=O)N[C@H](C(=O)N[C@@H](CCCNC(=N)N)C(=O)N[C@@H](CCCNC(=N)N)C(=O)N[C@H](C(=O)N[C@@H](CCCNC(=N)N)C(=O)N[C@@H](CCCNC(=N)N)C(=O)N[C@H](C(=O)N[C@@H](Cc1c[nH]c2ccccc12)C(=O)N[C@@H](CCCNC(=N)N)C(=O)N[C@@H](CCCNC(=N)N)C(=O)N[C@H](C(=O)N[C@H](C(=O)N[C@@H](CCCNC(=N)N)C(=O)N[C@H](C(=O)N[C@H](C(=O)N[C@@H](CCCNC(=N)N)C(=O)N[C@@H](CCCNC(=N)N)C(=O)N[C@@H](Cc1c[nH]c2ccccc12)C(=O)N[C@H](C(=O)N[C@@H](CCCNC(=N)N)C(=O)N[C@@H](CCCNC(=N)N)C(=O)O)C(C)C)C(C)C)C(C)C)C(C)C)C(C)C)C(C)C)C(C)C)C(C)C)C(C)C)C(C)C)C(C)C)C(C)C)C(C)C [WLBU-3, VRRVWRRVVRVVRRWVRRVRRVWRRVVRVVRRWVRR] (H-VRRVWRRVVRVVRRWVRRVRRVWRRVVRVVRRWVRR-OH) | 1.5 (≈ 7.44 µg/mL) | 0.8 (≈ 3.97 µg/mL) | 3,000 nanomolar | 600 nM (≈ 2.98 µg/mL) | 400 nM (≈ 1.98 µg/mL) | 100 nM (≈ 0.496 µg/mL)
RRVVRRVRRVVRRVVRVVRRVVRRVRRVVRRVVRVVRRVVRR [LBU-3.5, RRVVRRVRRVVRRVVRVVRRVVRRVRRVVRRVVRVVRRVVRR] | 0.4 | 0.4 | 1000 nM | 600 nM | 1500 nM | 200 nM
RVVRVVRRVVRRVRRVVRRVVRVVRRVVRRVRRVVRRVVRVVRRVVRR [LBU-4, RVVRVVRRVVRRVRRVVRRVVRVVRRVVRRVRRVVRRVVRVVRRVVRR] | 0.8 | 0.4 | 800 nM | 800 nM |  | 
RVVRVVRRWVRRVRRVWRRVVRVVRRWVRRVRRVWRRVVRVVRRWRVV [WLBU-4, RVVRVVRRWVRRVRRVWRRVVRVVRRRVVRVVRRWRVV RWVRR VRRVW] | 1.5 | 0.4 | 3,000 nanomolar | 600 nM | 1500 nM | 200 nM
